According to the METLIN SMRT retention time set (Domingo-Almenara et al. 2019):

Assay: gradient 5% acetonitrile 3 min, to 50% in 2 min, to 85% in 15 min, held 3 min, 100 µL/min
Details: column: Zorbax Extend-C18 2.1 x 50 mm; eluents: water / acetonitrile, 0.1% formic acid
Procedure, shortened: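 Retention time was recorded from adduct peaks, which were picked computationally and each inspected manually. Pure standards ran in mixtures of ~100 molecules on HPLC coupled to a quadrupole time-of-flight mass spectrometer, in positive and negative ionization mode, through a Zorbax Extend-C18 column (2.1 × 50 mm, 1.8 μm) at 100 μL/min. Eluents were water and acetonitrile, each with 0.1% formic acid.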

Row | SMILES | RP-LC retention time [s]
1 | N#Cc1ccc(S(=O)(=O)N2CC(c3nc(CCOCC4CCOCC4)no3)C2)cc1 | 813
2 | CCOC(=O)c1c(C)[nH]c(NC(=O)Nc2ccccc2C)c1C | 912
3 | Cc1cc(-c2cc(S(=O)(=O)NCCCOC(C)C)c(C)s2)n[nH]1 | 770
4 | Cc1ccc(C)c(NC(=O)N2CCC(OC3CCN(S(C)(=O)=O)CC3)CC2)c1 | 771
5 | CCN(CC)CCNc1ncnc2onc(-c3ccc(Cl)cc3)c12 | 664
6 | CCNC(=O)C1CCN(S(=O)(=O)c2cc(Cl)ccc2OC)CC1 | 726
7 | CC(C)Cn1cc(CCNC(=O)c2ccc(F)cc2F)c2cccnc21 | 834
8 | C#CCOCC1CCN(C(=O)CC2CCCCC2)CC1 | 864
9 | COc1cccc(S(=O)(=O)N2CCC3(CC2)CC(OCC2CC2)CCO3)c1 (centres undefined) | 1010
10 | Cc1noc(-c2nn(C)c3c2CN(C(=O)Nc2ccccc2C(F)(F)F)CC3)n1 | 709
11 | CCOC(=O)c1noc2nc(C)nc(NCc3ccc(F)cc3)c12 | 1030
12 | Cc1ccccc1NC(=O)C1CCCN1S(=O)(=O)c1cc2c(cc1C)NC(=O)CO2 (centres undefined) | 763
13 | Cc1cc(-c2nnc(-c3ccc(F)cc3)o2)c(C)n1CC(=O)Nc1ccc(F)c(F)c1 | 1040
14 | O=C(NC1CCCc2ccccc21)c1ccc2c(c1)OCCCO2 (centres undefined) | 958
15 | CCCCn1c(CNC(=O)c2cccs2)nnc1SCC(=O)OCC | 713
16 | CCOC(=O)c1ccc(NC(=O)c2cnn(-c3ccc(Br)cc3)c2)cc1 | 1070
17 | CC(C)c1ccc(S(=O)(=O)N2CCCC2c2nc(-c3ccc(F)cc3)no2)cc1 (centres undefined) | 1260
18 | Nc1cc(C2CCN(C(=O)c3ccc(Cl)cc3)CC2)no1 | 705
19 | CCOC(=O)C1=C(CN2CCCCC2)NC(=O)NC1c1cccs1 (centres undefined) | 545
20 | Cn1c(-c2ccccc2)nn(CCNC(=O)C2COc3ccccc3O2)c1=O (centres undefined) | 702
21 | COc1ccc(-c2ccc(=O)n(Cc3nc(-c4ccc(F)cc4)no3)n2)cc1OC | 892
22 | O=C(NC1CCN(c2cc(-c3cccs3)[nH]n2)C1)c1ccc(F)cc1 (centres undefined) | 726
23 | COCCC1(NC(=O)C2CCOCC2)CCN(C(=O)C2CC=CC2)CC1 | 632
24 | CCCNC(=O)C1CCCN(C(=O)c2[nH]c(C)c(C)c2C)C1 (centres undefined) | 721
25 | COc1ccc2c(CCNC(=O)c3cccs3)c[nH]c2c1 | 764

Row | SMILES | RP-LC retention time [s]
26 | CCN(CC)CCNC(=O)c1cn(C)nc1S(=O)(=O)N1CCN(c2ccc(Cl)cc2)CC1 | 707
27 | CCn1ccc2c(cc(C(=O)Nc3ccc(C)c(C)c3)n2C)c1=O | 824
28 | Cc1ccnc(Nc2nc(-c3ccc(F)c(C)c3)cs2)c1 | 906
29 | CC(=O)c1cccc(NC(=O)Cn2cc(-c3nnc(C)o3)c3ccccc32)c1 | 755
30 | Clc1cc(Br)ccc1-c1ccc(CNCC2CCNCC2)o1 | 605
31 | Cc1ccc(Cl)cc1NC(=O)N1CCC(c2cc(N)on2)CC1 | 736
32 | CSc1ccc(-c2noc(CN3C(=O)COc4cc(C)ccc43)n2)cc1 | 1130
33 | O=C(CN1C(=O)CCC1=O)Nc1ncc(S(=O)(=O)c2ccc([N+](=O)[O-])cc2)s1 | 706
34 | CCOC(=O)Cn1c(CN(C)Cc2ccccc2)nc2c1c(=O)n(C)c(=O)n2C | 643
35 | Cn1cccc1C(=O)N1CC(c2nc(CCOC3CCCC3)no2)C1 | 845
36 | Cc1cc(C)cc(N2CCCn3c2nc2c3c(=O)n(C)c(=O)n2C)c1 | 841
37 | CCCn1cc(CCNS(=O)(=O)c2cccc(C(F)(F)F)c2)c2cccnc21 | 904
38 | Cc1[nH]c(C(=O)N2CCCC(C(=O)NCCCc3ccccc3)C2)c(C)c1C(=O)OC(C)C (centres undefined) | 892
39 | O=C(NCCN1CCN(S(=O)(=O)c2ccccc2)CC1)c1c(F)cccc1Cl | 574
40 | CC1(C(=O)NCc2ccccc2)CN(S(C)(=O)=O)CC(=O)N1CCc1ccc(Cl)cc1 (centres undefined) | 874
41 | O=C(NCc1ccccc1)C1Cc2ccccc2CN1S(=O)(=O)c1ccccc1 (centres undefined) | 981
42 | CNC(=O)CCNc1c(-c2cccc(F)c2)nc2cnccn12 | 606
43 | CC1CCC(C(=O)NC(Cc2c[nH]c3ccccc23)C(=O)Nc2ccncc2)CC1 (centres undefined) | 668
44 | CCOC(=O)C1=C(N)Oc2c(oc(CO)cc2=O)C1c1cccnc1 (centres undefined) | 612
45 | CCN1CCCC1CNS(=O)(=O)c1cc(-c2nc(C)c(C(=O)N3CCCC3)s2)cs1 (centres undefined) | 604
46 | CCNC(=O)C1CCCN(c2nc3ncn(CC(=O)Nc4cc(Cl)ccc4C)c(=O)c3s2)C1 (centres undefined) | 741
47 | CC(=O)N1CCC(N2C(=O)C3(CCCC3)C2c2scnc2C)CC1 (centres undefined) | 664
48 | CCc1noc([C@@H]2CC(F)(F)CN2C(=O)c2ocnc2C)n1 | 720
49 | Cc1ccc(NC(=O)C2CC(=O)N(CCc3c[nH]c4ccc(C)cc34)C2)cc1 (centres undefined) | 843

Next, values leading:

Row | RP-LC retention time [s] | SMILES
50 | 639 | O=C1NCCCn2cc(S(=O)(=O)Nc3ccc(F)cc3)cc21
51 | 773 | O=C(c1ccccc1Br)N1CCN(Cc2nc(-c3ccccc3)cs2)CC1
52 | 775 | Cn1nc(N2CCCC(NS(=O)(=O)c3cccc(Cl)c3)C2)ccc1=O (centres undefined)
53 | 801 | O=C(c1ccc(OCC2CCCN(C(=O)c3ccc(F)c(F)c3)C2)cc1)N1CCOCC1 (centres undefined)
54 | 1380 | CCCCN1C(=O)C(C)(C(=O)N2CCN(c3cccc(C)c3C)CC2)Oc2cccnc21 (centres undefined)
55 | 747 | CCn1cnc(S(=O)(=O)N2CCCC(C(=O)N3CCN(c4ccccc4)CC3)C2)c1 (centres undefined)
56 | 1100 | COc1ccc(/C=C/C(=O)c2ccc(OC)cc2OC)cc1
57 | 990 | COc1ccc(-c2nc(-c3nnn(Cc4ccccc4)c3C)no2)c(OC)c1
58 | 775 | CCCN1C(=O)c2ccccc2Sc2cc(-c3noc(CNC(C)=O)n3)ccc21
59 | 667 | O=C(Nc1cccc(-c2cn3c(n2)SCC3)c1)c1cc(-c2ccco2)on1
60 | 665 | c1coc(CN2CC(Oc3ccc(-c4noc(-c5ccncc5)n4)cc3)C2)c1
61 | 856 | Cc1ccc(C(=O)N2CCCC(COc3ccc(C(=O)NC4CC4)cc3)C2)c(C)c1 (centres undefined)
62 | 768 | CCN1C(=O)COc2ccc(-c3nc(NC(=O)c4ccncc4)sc3C)cc21
63 | 558 | Cc1nn(C)c(C)c1CCCN(C)C(=O)c1cccc(N2CCNC(c3ccccc3)C2)n1 (centres undefined)
64 | 788 | COc1cccc(C(=O)NC(c2ccccc2)c2nnc(N3CCCC3)o2)c1 (centres undefined)
65 | 801 | Cc1ccccc1C(=O)N1CCc2c(c(-c3nc(C4CC4)no3)nn2C)C1
66 | 904 | CCc1ccc(S(=O)(=O)N2CCCN(c3ccc(=O)n(-c4ccccc4)n3)CC2)cc1
67 | 614 | O=C(NCc1cccc(F)c1)C1CCN(c2cncnc2N2CCOCC2)CC1
68 | 662 | Cc1ccc(CNC(=O)C2CCN(c3cncnc3N3CCCC3)CC2)cc1
69 | 649 | Cc1c(F)cccc1NC(=O)N1CCN(C2=CC3=NC(C)CN3C=N2)CC1 (centres undefined)

Row | RP-LC retention time [s] | SMILES
70 | 596 | O=C(c1ccnc(N2CCNC(c3ccccc3)C2)c1)N1CCCN(c2ncccn2)CC1 (centres undefined)
71 | 801 | Cc1ccc(Nc2c(-c3cc(Br)ccc3F)nc3ccccn23)cc1
72 | 758 | O=C(NC(c1ccccc1)c1nnc(N2CCOCC2)o1)c1cccc(F)c1 (centres undefined)
73 | 684 | Cc1ccc2nc(-c3ccccc3O)c(Nc3ccc4c(c3)OCCO4)n2c1
74 | 776 | CC(=O)N1c2ccc(S(=O)(=O)N3CCOCC3)cc2CC1C(=O)N1CCN(c2ccccc2)CC1 (centres undefined)
75 | 771 | COc1ccc(Cl)cc1S(=O)(=O)NCc1cccnc1-c1cccc(C)c1
76 | 811 | CCOc1ccc(NC(=O)N(C)Cc2nc3ccccc3c(=O)n2CCOC)cc1
77 | 811 | COc1cc(-c2nc3ncccn3c2NCc2ccc(C)cc2)ccc1OC(C)C
78 | 807 | COc1ccc(-c2c(C)noc2NC(C)=O)cc1S(=O)(=O)N1CCc2ccccc2C1
79 | 1340 | Cc1cc(C)c(S(=O)(=O)N2CCCC2c2nc(-c3ccc(Cl)cc3)no2)cc1C (centres undefined)
80 | 972 | Fc1ccccc1N1CCN(Cc2nc(-c3ccc(N4CCCCC4)nc3)no2)CC1
81 | 1010 | CCOc1cc(=O)n2c(c1C(=O)OCc1ccc(C)cc1)CCCCC2
82 | 787 | Cc1ccc(-n2nc(N3CCN(C(=O)Nc4ccccc4C)CC3)ccc2=O)cc1
83 | 1250 | COc1ccc(Nc2nc(N3CCN(c4ncccn4)CC3)nc3c2C(=O)CC(C)(C)C3)cc1
84 | 581 | COc1ccc(NC(=O)N2CCC(n3cnc4cccnc43)CC2)cc1OC
85 | 585 | CN1CCc2c([nH]c3ccccc23)C12CCN(S(=O)(=O)c1cccnc1)CC2
86 | 808 | COC(=O)c1c(NCc2cc(OC)ccc2OC)c2cccc(Cl)c2[nH]c1=O
87 | 917 | Cc1cc(C)c(S(=O)(=O)N2CCC(N3CCN(Cc4ccccc4)C(=O)C3=O)CC2)cc1C
88 | 878 | CCOc1ccc(C(=O)N2CCC3(CC2)NC(=O)c2cc(C)ccc2N3CC)cc1
89 | 630 | COc1ccccc1NC(=O)N1CCN(CCn2c(C(F)(F)F)nc3cccnc32)CC1
